The text below walks through data of the supplement of paper PMC10307832.

What all share (assay): relative viability (nuclei count vs DMSO), 5 days (fraction); higher = more cells survive
Compound in assay [1]: COC1=CC=C(C=C1)COC2=C(C=C(C=C2)CC3=CN=C(N=C3N)N)OC [GW-2580] + Cc1nc(Nc2ncc(C(=O)Nc3c(C)cccc3Cl)s2)cc(N2CCN(CCO)CC2)n1 [Dasatinib] (partner 0.075 µM)
The method, boiled down: (§1)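 Relative viability divides the nuclei count in treated wells by that in vehicle wells. Lung cancer cell lines were seeded in 1536-well plates, dosed by pin tool the next day, and fixed and stained after 5 days in one step with final 0.05% Triton X-100, 1% formaldehyde and 1 ug/ml Hoechst. Dosing was a single drug or a fixed anchor-drug dose plus five library-drug doses (not always all listed) in √10 steps, and values are medians of duplicate plates imaged at 4×.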

Compound in assay [2]: Cc1cnc(Nc2ccc(OCCN3CCCC3)cc2)nc1Nc1cccc(S(=O)(=O)NC(C)(C)C)c1 [Fedratinib] + N=C(N)NC(=N)NCCc1ccccc1 [Phenformin] (partner 250 µM)
The method, boiled down: as §1

Compound in assay [3]: Cc1cnc(Nc2ccc(OCCN3CCCC3)cc2)nc1Nc1cccc(S(=O)(=O)NC(C)(C)C)c1 [Fedratinib] + Nc1nc2[nH]cc(CCc3ccc(C(=O)N[C@@H](CCC(=O)O)C(=O)O)cc3)c2c(=O)[nH]1 [Pemetrexed] (partner 0.2 µM)
The method, boiled down: as §1

Compound in assay [4]: COC1=CC=C(C=C1)COC2=C(C=C(C=C2)CC3=CN=C(N=C3N)N)OC [GW-2580] + CC1(C)CCC(c2ccc(Cl)cc2)=C(CN2CCN(c3ccc(C(=O)NS(=O)(=O)c4ccc(N[C@H](CCN5CCOCC5)CSc5ccccc5)c(S(=O)(=O)C(F)(F)F)c4)cc3)CC2)C1 [Navitoclax] (partner 0.5 µM)
The gist of the method: as §1

Compound in assay [5]: Cc1cnc(Nc2ccc(OCCN3CCCC3)cc2)nc1Nc1cccc(S(=O)(=O)NC(C)(C)C)c1 [Fedratinib] + Cc1cc(Nc2cc(N3CCN(C)CC3)nc(Sc3ccc(NC(=O)C4CC4)cc3)n2)n[nH]1 [Tozasertib] (partner 0.1 µM)
The method, boiled down: as §1

With RERF-LC-KJ, the relative viability in assay [1] (first compound 0.08 µM) came to 0.896; in assay [1] (first compound 0.8 µM) it was 0.893; in assay [1] (first compound 2.53 µM) it was 0.797; in assay [1] (first compound 8 µM), 0.71; in assay [2] (first compound 0.1 µM), 0.384; in assay [2] (first compound 0.3162 µM) it was 0.433. The relative viability in assay [2] (first compound 1 µM) was determined as 0.373; in assay [3] (first compound 0.1 µM), 0.454; in assay [3] (first compound 0.3162 µM) it was 0.463; in assay [3] (first compound 1 µM) it was 0.502; in assay [4] (first compound 0.08 µM) it was 0.871; in assay [4] (first compound 0.8 µM) it was 1.04. For the same cell line, the relative viability was 1.13 in assay [4] (first compound 2.53 µM); 0.995 in assay [4] (first compound 8 µM); 0.292 in assay [5] (first compound 0.1 µM); 0.38 in assay [5] (first compound 0.3162 µM); 0.347 in assay [5] (first compound 1 µM).

Consider SK-LU-1, for which the relative viability was 0.178 in assay [1] (first compound 0.08 µM); 0.207 in assay [1] (first compound 0.8 µM); 0.149 in assay [1] (first compound 2.53 µM); 0.167 in assay [1] (first compound 8 µM); 0.5 in assay [2] (first compound 0.1 µM); 0.514 in assay [2] (first compound 0.3162 µM). In addition, the relative viability in assay [2] (first compound 1 µM) is 0.328; in assay [3] (first compound 0.1 µM), 1; in assay [3] (first compound 0.3162 µM) it was 0.906; in assay [3] (first compound 1 µM) it was 0.837; in assay [4] (first compound 0.08 µM) it was 0.869; in assay [4] (first compound 0.8 µM) it was 0.85. For the same cell line, the relative viability came out at 1.06 in assay [4] (first compound 2.53 µM); 1.05 in assay [4] (first compound 8 µM); 0.27 in assay [5] (first compound 0.1 µM); 0.298 in assay [5] (first compound 0.3162 µM); 0.261 in assay [5] (first compound 1 µM).

For the cell line SK-MES-1, the relative viability in assay [1] (first compound 0.08 µM) came out at 0.444; in assay [1] (first compound 0.8 µM), 0.477; in assay [1] (first compound 2.53 µM), 0.304; in assay [1] (first compound 8 µM) it was 0.292; in assay [2] (first compound 0.1 µM), 0.511; in assay [2] (first compound 0.3162 µM), 0.644. Besides, the relative viability in assay [2] (first compound 1 µM) stood at 0.532; in assay [3] (first compound 0.1 µM), 1.01; in assay [3] (first compound 0.3162 µM), 0.947; in assay [3] (first compound 1 µM), 0.811; in assay [4] (first compound 0.08 µM), 1.4; in assay [4] (first compound 0.8 µM), 1.18. Besides, the relative viability in assay [4] (first compound 2.53 µM) turned out to be 1.1; in assay [4] (first compound 8 µM), 1.33; in assay [5] (first compound 0.1 µM), 0.375; in assay [5] (first compound 0.3162 µM), 0.857; in assay [5] (first compound 1 µM), 0.737.

Take SW 1573: the relative viability in assay [1] (first compound 0.08 µM) came out at 0.464; in assay [1] (first compound 0.8 µM) it was 0.45; in assay [1] (first compound 2.53 µM) it was 0.452; in assay [1] (first compound 8 µM), 0.407; in assay [2] (first compound 0.1 µM), 0.32; in assay [2] (first compound 0.3162 µM) it was 0.391. Moreover, the relative viability in assay [2] (first compound 1 µM) stood at 0.369; in assay [3] (first compound 0.1 µM), 0.753; in assay [3] (first compound 0.3162 µM), 0.857; in assay [3] (first compound 1 µM) it was 0.673; in assay [4] (first compound 0.08 µM), 1; in assay [4] (first compound 0.8 µM), 1.04. Besides, the relative viability turned out to be 0.869 in assay [4] (first compound 2.53 µM); 0.929 in assay [4] (first compound 8 µM); 0.148 in assay [5] (first compound 0.1 µM); 0.21 in assay [5] (first compound 0.3162 µM); 0.14 in assay [5] (first compound 1 µM).
